# From patent publication EP3431468B1, “USE OF ADIPONECTIN RECEPTOR AGONISTS IN TREATING DEPRESSION, ANXIETY AND NEUROINFLAMMATION” (CENTRE NATIONAL DE LA RECHERCHE SCIENTIFIQUE, priority 2017, dated 2019)
# Tests used:
# wt mice = experiment: Rotarod, motor coordination; type: in vivo; settings: chronic ip 1mg/kg for twenty consecutive days
# Procedure: All behavioral testing were conducted during the light phase (between 09:00 and 14:00 am) in compliance with the Institutional Animal Care and Use Committee of the University of Nice-Sophia Antipolis (permission number 010344.01 from the French "Ministère de l'Enseignement Supérieur et de la Recherche" granted to Dr. Joëlle Chabry). • Forced Swimming test (FST) - Mice were placed an inescapable transparent tank (20cm diameter, 30cm deep) filled with water (23°C ± 0.5) for six minutes as previously described by Porsolt et al. (1977). The immobility duration, as an index of the resignation, was timed during the last four minutes of the test. A mouse was considered immobile when it remained floating with only slight movements to keep its head out of the water. • Open-field test (OF) - Locomotor activity was determined using open-field (OF) activity. […] Twenty-four hours later, the latency to fall, an index of the motor coordination, was recorded on accelerating rod (from 10 to 40 rpm/min). • Light & Dark test (L&D) - The L&D place preference test was used to assess the anxiety-like behavior. […] To initiate testing, mice were placed into the light side and activity was recorded for 5 minutes. […] The amount of water and 1% sucrose solution was measured twenty-four hours later. […]
# AdipoR2 = target: T1, AdipoR2 (Homo sapiens, UniProt Q86V24); settings: Okada-Iwabu, Yamauchi et al. 2013; cited from earlier work
# T1 sequence (Q86V24 1-386): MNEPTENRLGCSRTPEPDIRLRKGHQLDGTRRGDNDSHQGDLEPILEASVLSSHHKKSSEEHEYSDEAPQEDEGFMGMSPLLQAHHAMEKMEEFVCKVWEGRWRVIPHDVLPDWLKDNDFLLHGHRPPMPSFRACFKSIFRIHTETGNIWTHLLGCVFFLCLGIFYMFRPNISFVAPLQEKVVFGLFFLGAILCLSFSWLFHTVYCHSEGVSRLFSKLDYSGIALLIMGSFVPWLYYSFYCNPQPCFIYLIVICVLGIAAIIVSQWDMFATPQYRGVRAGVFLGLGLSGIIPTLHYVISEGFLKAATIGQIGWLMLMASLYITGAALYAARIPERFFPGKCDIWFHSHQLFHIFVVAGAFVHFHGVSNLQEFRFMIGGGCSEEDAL
# AdipoRl = target: T2, AdipoRl (Homo sapiens, UniProt Q96A54); settings: Okada-Iwabu, Yamauchi et al. 2013; cited from earlier work
# T2 sequence (Q96A54 1-375): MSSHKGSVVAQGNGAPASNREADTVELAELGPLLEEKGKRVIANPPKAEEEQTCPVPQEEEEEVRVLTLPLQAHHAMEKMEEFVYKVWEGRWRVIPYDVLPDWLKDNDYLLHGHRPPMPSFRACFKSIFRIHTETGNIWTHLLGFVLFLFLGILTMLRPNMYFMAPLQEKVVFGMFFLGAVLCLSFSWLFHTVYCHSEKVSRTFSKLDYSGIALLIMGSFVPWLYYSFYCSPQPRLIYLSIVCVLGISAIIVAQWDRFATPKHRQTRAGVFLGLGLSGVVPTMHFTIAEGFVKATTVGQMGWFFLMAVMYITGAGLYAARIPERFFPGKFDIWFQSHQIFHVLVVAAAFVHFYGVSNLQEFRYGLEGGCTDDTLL
compound,measurement,setting,value
"O=C(COc1ccc(C(=O)c2ccccc2)cc1)NC1CCN(Cc2ccccc2)CC1 [AdipoRon, 2-(4-Benzoylphenoxy)-N-[1-(phenylmethyl)-4-piperidinyl]-acetamide]",motor coordination (rotarod),wt mice,did not significantly modify
same,binding to adiponectin receptor,AdipoR2,bind
same,binding to adiponectin receptor,AdipoRl,bind
